Converted amounts (≈) assume the structure as drawn.
How the values were obtained:
Plasmodium falciparum [1] = assay: Antimalarial activity against Plasmodium falciparum NF54 by [3H]hypoxanthine incorporation assay; format: functional, organism-based
Plasmodium falciparum [2] = assay: Antimalarial activity against Plasmodium falciparum K1 by [3H]hypoxanthine incorporation assay; format: functional, organism-based
Plasmodium falciparum [3] = assay: Antimalarial activity against Plasmodium falciparum NF54 by [3H]hypoxanthine incorporation assay in presence of 1:3 ratio of compound to 2,2,6,6,-tetramethyl-1-piperidinyloxy; format: functional
Plasmodium falciparum [4] = assay: Antimalarial activity against Plasmodium falciparum NF54 by [3H]hypoxanthine incorporation assay in presence 1:3 ratio of compound to deoxyartemisinin; format: functional
Plasmodium falciparum [5] = assay: Antimalarial activity against Plasmodium falciparum NF54 by [3H]hypoxanthine incorporation assay in presence of 1:3 ratio of compound to 4-amino-2,2,6,6,-tetramethyl-1-piperidinyloxy; format: functional
Plasmodium falciparum [6] = assay: Antimalarial activity against Plasmodium falciparum NF54 by [3H]hypoxanthine incorporation assay in presence of 1:1 ratio of compound to 4-carboxy-2,2,6,6,-tetramethyl-1-piperidinyloxy; format: functional
Plasmodium falciparum [7] = assay: Antimalarial activity against Plasmodium falciparum NF54 by [3H]hypoxanthine incorporation assay in presence of 1:3 ratio of compound to 4-hydroxy-2,2,6,6,-tetramethyl-1-piperidinyloxy; format: functional
Plasmodium falciparum [8] = assay: Antimalarial activity against Plasmodium falciparum NF54 by [3H]hypoxanthine incorporation assay in presence 1:1 ratio of compound to carbaOZ277; format: functional
Plasmodium falciparum [9] = assay: Antimalarial activity against Plasmodium falciparum NF54 by [3H]hypoxanthine incorporation assay in presence of 3:1 ratio of compound to 4-oxo-2,2,6,6,-tetramethyl-1-piperidinyloxy; format: functional
Plasmodium falciparum [10] = assay: Antimalarial activity against Plasmodium falciparum NF54 by [3H]hypoxanthine incorporation assay in presence of 2,2,6,6,-tetramethyl-1-piperidinyloxy; format: functional
Plasmodium falciparum [11] = assay: Antimalarial activity against Plasmodium falciparum NF54 by [3H]hypoxanthine incorporation assay in presence of 3:1 ratio of compound to 4-carboxy-2,2,6,6,-tetramethyl-1-piperidinyloxy; format: functional
Plasmodium falciparum [12] = assay: Antimalarial activity against Plasmodium falciparum NF54 by [3H]hypoxanthine incorporation assay in presence of 4-amino-2,2,6,6,-tetramethyl-1-piperidinyloxy; format: functional
Plasmodium falciparum [13] = assay: Antimalarial activity against Plasmodium falciparum NF54 by [3H]hypoxanthine incorporation assay in presence 1:1 ratio of compound to deoxyartemisinin; format: functional
Plasmodium falciparum [14] = assay: Antimalarial activity against Plasmodium falciparum NF54 by [3H]hypoxanthine incorporation assay in presence of 1:3 ratio of compound to 4-carboxy-2,2,6,6,-tetramethyl-1-piperidinyloxy; format: functional
Plasmodium falciparum [15] = assay: Antimalarial activity against Plasmodium falciparum NF54 by [3H]hypoxanthine incorporation assay in presence of 1:1 ratio of compound to 2,2,6,6,-tetramethyl-1-piperidinyloxy; format: functional
Plasmodium falciparum [16] = assay: Antimalarial activity against Plasmodium falciparum NF54 by [3H]hypoxanthine incorporation assay in presence of 1:3 ratio of compound to 4-oxo-2,2,6,6,-tetramethyl-1-piperidinyloxy; format: functional
Plasmodium falciparum [17] = assay: Antimalarial activity against Plasmodium falciparum NF54 by [3H]hypoxanthine incorporation assay in presence of 3:1 ratio of compound to 2,2,6,6,-tetramethyl-1-piperidinyloxy; format: functional
Plasmodium falciparum [18] = assay: Antimalarial activity against Plasmodium falciparum NF54 by [3H]hypoxanthine incorporation assay in presence of deoxyartemisinin; format: functional
Plasmodium falciparum [19] = assay: Antimalarial activity against Plasmodium falciparum NF54 by [3H]hypoxanthine incorporation assay in presence 3:1 ratio of compound to deoxyartemisinin; format: functional
Plasmodium falciparum [20] = assay: Antimalarial activity against Plasmodium falciparum NF54 by [3H]hypoxanthine incorporation assay in presence of 1:1 ratio of compound to 4-oxo-2,2,6,6,-tetramethyl-1-piperidinyloxy; format: functional
Plasmodium falciparum [21] = assay: Antimalarial activity against Plasmodium falciparum NF54 by [3H]hypoxanthine incorporation assay in presence of 4-oxo-2,2,6,6,-tetramethyl-1-piperidinyloxy; format: functional
Plasmodium falciparum [22] = assay: Antimalarial activity against Plasmodium falciparum NF54 by [3H]hypoxanthine incorporation assay in presence 3:1 ratio of compound to carbaOZ277; format: functional
Plasmodium falciparum [23] = assay: Antimalarial activity against Plasmodium falciparum NF54 by [3H]hypoxanthine incorporation assay in presence of 1:1 ratio of compound to 4-hydroxy-2,2,6,6,-tetramethyl-1-piperidinyloxy; format: functional
Plasmodium falciparum [24] = assay: Antimalarial activity against Plasmodium falciparum NF54 by [3H]hypoxanthine incorporation assay in presence of 4-hydroxy-2,2,6,6,-tetramethyl-1-piperidinyloxy; format: functional
Plasmodium falciparum [25] = assay: Antimalarial activity against Plasmodium falciparum NF54 by [3H]hypoxanthine incorporation assay in presence of 3:1 ratio of compound to 4-amino-2,2,6,6,-tetramethyl-1-piperidinyloxy; format: functional
Plasmodium falciparum [26] = assay: Antimalarial activity against Plasmodium falciparum NF54 by [3H]hypoxanthine incorporation assay in presence of carbaOZ277; format: functional
Plasmodium falciparum [27] = assay: Antimalarial activity against Plasmodium falciparum NF54 by [3H]hypoxanthine incorporation assay in presence of 1:1 ratio of compound to 4-amino-2,2,6,6,-tetramethyl-1-piperidinyloxy; format: functional
Plasmodium falciparum [28] = assay: Antimalarial activity against Plasmodium falciparum NF54 by [3H]hypoxanthine incorporation assay in presence 1:3 ratio of compound to carbaOZ277; format: functional
Plasmodium falciparum [29] = assay: Antimalarial activity against Plasmodium falciparum NF54 by [3H]hypoxanthine incorporation assay in presence of 4-carboxy-2,2,6,6,-tetramethyl-1-piperidinyloxy; format: functional
Plasmodium falciparum [30] = assay: Antimalarial activity against Plasmodium falciparum NF54 by [3H]hypoxanthine incorporation assay in presence of 3:1 ratio of compound to 4-hydroxy-2,2,6,6,-tetramethyl-1-piperidinyloxy; format: functional
[31] = Plasmodium falciparum, K1, read-out: IC50

With `CC1(C)CC(C(=O)O)CC(C)(C)N1[O]` the IC50 (Plasmodium falciparum [1]) was 0.00054 µg/mL (≈ 0.0027 µM) and the IC50 (Plasmodium falciparum [2]) was 0.00057 µg/mL (≈ 0.00285 µM).

`CC(C)(N)CNC(=O)CC1CC[C@]2(CC1)OC[C@]1(O2)C2CC3CC(C2)CC1C3` (stereo partly drawn) was tested, and the IC50 (Plasmodium falciparum [2]; [31]) was 12 µg/mL (≈ 30.7 µM).

In the case of `CC1(C)CC(=O)CC(C)(C)N1[O]`, the IC50 (Plasmodium falciparum [2]; [31]) is reported as 2.2 µg/mL (≈ 12.9 µM).

Compound `C[C@@H]1CC[C@H]2[C@@H](C)C(=O)O[C@@H]3O[C@@]4(C)CC[C@@H]1[C@]32OO4` [ARTEMISININ] has an FIC50 (Plasmodium falciparum [3]) of 1.3, an FIC50 (Plasmodium falciparum [4]) of 1.2 and an FIC50 (Plasmodium falciparum [5]) of 1.3. It also gave an FIC50 (Plasmodium falciparum [6]) of 1.4, an FIC50 (Plasmodium falciparum [7]) of 1.8 and an FIC50 (Plasmodium falciparum [8]) of 1.1. It also gave an FIC50 (Plasmodium falciparum [9]) of 2, an FIC50 (Plasmodium falciparum [10]) of 1.9 and an FIC50 (Plasmodium falciparum [11]) of 1.2. For the same compound, the FIC50 (Plasmodium falciparum [12]) was 2, the FIC50 (Plasmodium falciparum [13]) was 1.1 and the FIC50 (Plasmodium falciparum [14]) was 1.4. It also gave an FIC50 (Plasmodium falciparum [15]) of 2.1, an FIC50 (Plasmodium falciparum [16]) of 2.3 and an FIC50 (Plasmodium falciparum [17]) of 2.2. It also gave an FIC50 (Plasmodium falciparum [18]) of 1.1, an FIC50 (Plasmodium falciparum [19]) of 1 and an FIC50 (Plasmodium falciparum [20]) of 2.6. The FIC50 (Plasmodium falciparum [21]) was 2.3, the FIC50 (Plasmodium falciparum [22]) was 1.1 and the FIC50 (Plasmodium falciparum [23]) was 4. The FIC50 (Plasmodium falciparum [24]) was 2.8, the FIC50 (Plasmodium falciparum [25]) was 2.8 and the FIC50 (Plasmodium falciparum [26]) was 1.1. It also gave an FIC50 (Plasmodium falciparum [27]) of 1.9, an FIC50 (Plasmodium falciparum [28]) of 1.1 and an FIC50 (Plasmodium falciparum [29]) of 1.3. It also gave an FIC50 (Plasmodium falciparum [30]) of 2.5.

For `C[C@@H]1CC[C@H]2[C@@H](C)C(=O)O[C@@H]3O[C@@]4(C)CC[C@@H]1[C@]32O4` [DEOXYARTEMISININ], the IC50 (Plasmodium falciparum [2]; [31]) was 34 µg/mL (≈ 128 µM).

`CC(C)(N)CNC(=O)C[C@H]1CC[C@]2(CC1)OO[C@]1(O2)C2CC3CC(C2)CC1C3` [OZ277] gave an FIC50 (Plasmodium falciparum [3]) of 1.8, an FIC50 (Plasmodium falciparum [4]) of 1.4 and an FIC50 (Plasmodium falciparum [5]) of 2.3. For the same compound, the FIC50 (Plasmodium falciparum [6]) was 1.3, the FIC50 (Plasmodium falciparum [7]) was 1.5 and the FIC50 (Plasmodium falciparum [8]) was 1.2. It also gave an FIC50 (Plasmodium falciparum [9]) of 1.1, an FIC50 (Plasmodium falciparum [10]) of 1.5 and an FIC50 (Plasmodium falciparum [11]) of 1.2. The FIC50 (Plasmodium falciparum [12]) was 2.1, the FIC50 (Plasmodium falciparum [13]) was 1.3 and the FIC50 (Plasmodium falciparum [14]) was 1.3. The FIC50 (Plasmodium falciparum [15]) was 1.5, the FIC50 (Plasmodium falciparum [16]) was 1.4 and the FIC50 (Plasmodium falciparum [17]) was 1.2. The FIC50 (Plasmodium falciparum [18]) was 1.2, the FIC50 (Plasmodium falciparum [19]) was 1.2 and the FIC50 (Plasmodium falciparum [20]) was 1.3. The FIC50 (Plasmodium falciparum [21]) was 1.3, the FIC50 (Plasmodium falciparum [22]) was 1.1 and the FIC50 (Plasmodium falciparum [23]) was 1.3. It also gave an FIC50 (Plasmodium falciparum [24]) of 1.3, an FIC50 (Plasmodium falciparum [25]) of 1.7 and an FIC50 (Plasmodium falciparum [26]) of 1.3. For the same compound, the FIC50 (Plasmodium falciparum [27]) was 2.4, the FIC50 (Plasmodium falciparum [28]) was 1.2 and the FIC50 (Plasmodium falciparum [29]) was 1.3. It also gave an FIC50 (Plasmodium falciparum [30]) of 1.2.

Compound `CC1(C)CC(N)CC(C)(C)N1[O]` [TEMPAMINE] has an IC50 (Plasmodium falciparum [2]; [31]) of 16 µg/mL (≈ 93.4 µM).

In the case of `CC1(C)CC(O)CC(C)(C)N1[O]` [TEMPOL], the IC50 (Plasmodium falciparum [2]; [31]) is reported as 19 µg/mL (≈ 110 µM).

Source: ChEMBL document CHEMBL1671678, “Probing the antimalarial mechanism of artemisinin and OZ277 (arterolane) with nonperoxidic isosteres and nitroxyl radicals” (Antimicrob Agents Chemother, 2010)
